Measured values published in patent US12138322B2, “Method of preventing the development of melanoma” (Vector Vitale IP LLC, priority 2019, dated 2024).
Several values for one entry are separate records, joined by “and”; a condition that tells them apart may be missing. Equal entries are not always repeated. Entries after “also recorded” stand apart in the source; their conditions may differ. Marks after values point to notes of the source that are not given here.

System: B16 melanoma
Test: B16 melanoma tumor growth and survival in mice, intratumoral administration
Format: in vivo, C57Bl/J6 mice
Design: key to presence or absence of tumor, individual animals: Tumor−: absence of tumor growth; Tumor+: presence of tumor; key to tumor volume, individual animals: tumor volume in mm^3, ellipsoid V = 4/3×π×a×b×c from radii
Settings: for size of melanoma reduced compared to control: drug administered on the 11th day after inoculation; for tumor volume, individual animals: group 2, individual regimens
Procedure: B16 melanoma cells having the following characteristic were used in the experiment: • Origin: Mus musculus skin (C57BL/6 mouse) • Characteristics of tumor growth: short incubation period, rapid growth, absence of spontaneous metastases. • Tumor inoculability is 100%. The minimum dose of cells that causes tumor growth for this melanoma is only 100 to 1000 per subcutaneous injection in the mouse.
15 female C57Bl/J6 mice (5 mice per group) at the age of 10-12 weeks, weighing 18-22 g were used in the experiment.
B16 melanoma cells were cultured in vitro under standard conditions. For transplantation, tumor cells in the exponential phase were removed from the substrate with 0.02% Versene solution and the suspension cellularity and viability was evaluated in the presence of trypan blue in a hemocytometer and the suspension was adjusted to a concentration of 10^7 cells/ml by dilution with saline solution. Melanoma cells were injected intracutaneously (i.e.) in 0.05 ml of the suspension (0.5×10^6 cells/mouse) into the animal's back region. 24 hours before the injection of tumor cells, the wool cover on the back of each mouse was removed with depilation cream.
Grouping. The animals were divided into groups as follows: • Group No. 1: control group, mice injected i.e. with B16 melanoma cells; • Group No. 2: mice injected i.e. with B16 melanoma cells+intratumoral injections of ^64Zne(Asp)2 at day 5 after the tumor cells were inoculated. • Group No. 3: mice injected i.e. with B16 melanoma cells+intratumoral injections of ^64Zne(Asp)2 at day 11 after the tumor cells were inoculated
The composition to be administered was prepared immediately prior to its administration. ^64Zne(Asp)2 was dissolved in deuterium-depleted water with addition of 1% DMSO. Animals in group No. 2 were injected with the composition comprising ^64Zne(Asp)2 intratumorally and around the area of tumor growth at a dose of 200 μg/mouse in a volume of 20 μl/mouse after the tumor reached 0.5 cm in diameter (at day 5 after i.e. administration of the tumor cells).
Animals in group No. 3 were injected with the composition comprising ^64Zne(Asp)2 intratumorally and around the area of tumor growth at a dose of 300 μg/mouse in a volume of 30 μl/mouse at day 11 after i.e. administration of the tumor cells. […] 24 hours after the first injection and then a series of injections were given every other day. ^64Zne(Asp)2 was administered intratumorally every other day for 10 days, 5 times in total.
Regarding the 3rd group: group 3 mice received 300 mcg/mouse of ^64Zne in the form of ^4Zne aspartate on the 11th day and 200 mcg/mouse of ^4Zne aspartate on the 13th, 15th, 17th and 19th days after tumor cell injection.
The anti-tumor efficacy of ^64Zne(Asp)2 was evaluated on the basis of the growth dynamics of melanoma tumors estimated based on the changes in tumor volume according to generally accepted rules.
From the time the experimental tumors reached 0.3-0.5 cm in diameter and every 2-3 days thereafter, the size of each tumor node in experimental animals was measured in three orthogonal planes (width×length×height (W×L×H)) and the tumor volume was calculated by use of the following formula for the volume of ellipsoid: V= 4/3×πabc; where V is the tumor volume (mm^3); a, b, c is the rumor radius (mm): a is the radius along the x axis, b is the radius along the y axis, c is the radius along the z axis.

## N[C@@H](CC(=O)[O-])C(=O)[O-].[Zn+2] [^64Zne(Asp)2, Zinc L-aspartate]
21st day
  size of melanoma reduced compared to control: 85%
24th day
  size of melanoma reduced compared to control: 75.6%
4 day after tumor cell inoculation (before 1st injection)
  tumor volume, individual animals: 14.1 and 33.5 and 24.4 (2×) and 25
6 day
  tumor volume, individual animals: 14.1 (3×) and 33.5 and 65.4
10 day
  tumor volume, individual animals: 24.4 (2×) and 14 (2×) and 51
12 day
  tumor volume, individual animals: 24.4 and 14 (3×) and 116.4
13 day, group 2
  local finding at tumor site, individual animal: Eschar
  presence or absence of tumor, individual animals: Tumor +/
14 day
  tumor volume, individual animals: 14 (2×) and 4.2 and 38.4 and 9.2
17 day
  tumor volume, individual animals: 4.2 (3×) and 65.4 and 14
18 day, group 2
  presence or absence of tumor, individual animals: Tumor +/
21 day
  tumor volume, individual animals: 0 (3×) and 179.6 and 33.5
22 day, group 2
  presence or absence of tumor, individual animals: Tumor +/
24 day
  tumor volume, individual animals: 25.4 and 0 (2×) and 282.7 and 33.5
25 day, group 2
  Tumor necrosis, individual animal: necrosis
  presence or absence of tumor, individual animals: Tumor +/
28 day, group 2
  death of individual animal: Died*
  presence or absence of tumor, individual animals: Tumor−; also recorded: Tumor +/
28 day
  tumor volume, individual animals: 33.2 and 0 (2×) and 641 and 102.6
36 day, group 2
  presence or absence of tumor, individual animals: Tumor +/; also recorded: Tumor−
39 day, group 2
  Tumor necrosis, individual animal: necrosis
  presence or absence of tumor, individual animals: Tumor+; also recorded: Tumor−; also recorded: Tumor +/
43 day, group 2
  death of individual animal: Died*
  presence or absence of tumor, individual animals: Tumor+; also recorded: Tumor−
55 day, group 2
  presence or absence of tumor, individual animals: Tumor−
58 day, group 2
  Tumor necrosis, individual animal: necrosis
  presence or absence of tumor, individual animals: Tumor +/; also recorded: Tumor−
61 day, group 2
  death of individual animal: Died*
  presence or absence of tumor, individual animals: Tumor−
Day 4 after inoculation (before first injection), group 2: intratumoral 200 μg/mouse at day 5
  Tumor volume (M ± m): 24.3 mm^3
Day 4 after inoculation (before first injection), group 3: intratumoral 300 μg/mouse at day 11, then 200 μg/mouse
  Tumor volume (M ± m): 27 mm^3
Day 4 after inoculation, group 2: intratumoral at day 5, 5 animals per group
  Number of alive mice: 100%
Day 4 after inoculation, group 3: intratumoral at day 11, 5 animals per group
  Number of alive mice: 100%
Day 6, group 2: intratumoral at day 5
  Number of alive mice: 100%
Day 6, group 3: intratumoral at day 11
  Number of alive mice: 100%
Day 6 after inoculation (before first injection), group 3: intratumoral 300 μg/mouse at day 11, then 200 μg/mouse
  Tumor volume (M ± m): 63 mm^3
Day 6 after inoculation, group 2: intratumoral 200 μg/mouse at day 5
  Tumor volume (M ± m): 28.2 mm^3
Day 9, group 2: intratumoral at day 5
  Number of alive mice: 100%
Day 9, group 3: intratumoral at day 11
  Number of alive mice: 100%
Day 9 after inoculation (before first injection), group 3: intratumoral 300 μg/mouse at day 11, then 200 μg/mouse
  Tumor volume (M ± m): 119 mm^3
Day 9 after inoculation, group 2: intratumoral 200 μg/mouse at day 5
  Tumor volume (M ± m): 25.6 mm^3
Day 12, group 2: intratumoral at day 5
  Number of alive mice: 100%
Day 12, group 3: intratumoral at day 11
  Number of alive mice: 80^+ %
Day 12 after inoculation, group 2: intratumoral 200 μg/mouse at day 5
  Tumor volume (M ± m): 36.6 mm^3
Day 12 after inoculation, group 3: intratumoral 300 μg/mouse at day 11, then 200 μg/mouse
  Tumor volume (M ± m): 260 ± 20 mm^3
Day 14, group 2: intratumoral at day 5
  Number of alive mice: 100%
Day 14, group 3: intratumoral at day 11
  Number of alive mice: 80%
Day 14 after inoculation, group 2: intratumoral 200 μg/mouse at day 5
  Tumor volume (M ± m): 16 ± 6^d mm^3
Day 14 after inoculation, group 3: intratumoral 300 μg/mouse at day 11, then 200 μg/mouse
  Tumor volume (M ± m): 184 ± 51 mm^3
Day 17, group 2: intratumoral at day 5
  Number of alive mice: 100%
Day 17, group 3: intratumoral at day 11
  Number of alive mice: 80%
Day 17 after inoculation, group 2: intratumoral 200 μg/mouse at day 5
  Tumor volume (M ± m): 18.4 mm^3
Day 17 after inoculation, group 3: intratumoral 300 μg/mouse at day 11, then 200 μg/mouse
  Tumor volume (M ± m): 250 mm^3
Day 21, group 2: intratumoral at day 5
  Number of alive mice: 100%
Day 21, group 3: intratumoral at day 11
  Number of alive mice: 80%
Day 21 after inoculation, group 2: intratumoral 200 μg/mouse at day 5
  Tumor volume (M ± m): 42.6 mm^3
Day 21 after inoculation, group 3: intratumoral 300 μg/mouse at day 11, then 200 μg/mouse
  Tumor volume (M ± m): 375.4 mm^3
Day 24, group 2: intratumoral at day 5
  Number of alive mice: 100%
Day 24, group 3: intratumoral at day 11
  Number of alive mice: 60* %
Day 24 after inoculation, group 2: intratumoral 200 μg/mouse at day 5
  Tumor volume (M ± m): 68.3 mm^3
Day 24 after inoculation, group 3: intratumoral 300 μg/mouse at day 11, then 200 μg/mouse
  Tumor volume (M ± m): 881 mm^3
Day 27, group 2: intratumoral at day 5
  Number of alive mice: 100%
Day 27, group 3: intratumoral at day 11
  Number of alive mice: 60%
Day 27 after inoculation, group 2: intratumoral 200 μg/mouse at day 5
  Tumor volume (M ± m): 155.4 mm^3
Day 27 after inoculation, group 3: intratumoral 300 μg/mouse at day 11, then 200 μg/mouse
  Tumor volume (M ± m): 2313.5 mm^3
Day 28, group 2: intratumoral at day 5
  Number of alive mice: 80* %
Day 28, group 3: intratumoral at day 11
  Number of alive mice: 40%
Day 31, group 2: intratumoral at day 5
  Number of alive mice: 80%
Day 31, group 3: intratumoral at day 11
  Number of alive mice: 40%
Group No. 2, after a single intratumoral injection at day 5
  animals in which growth of melanoma was suppressed by 100%: 2 out of 5
Intratumoral on the 5th day after inoculation, day of reading not given
  tumor volume as % of the corresponding figure in the control group: 4%
